Source: patent US20050075393A1, “Carboxylic acid compound cyclopropane ring” (priority 2000, published 2005)

Tested on: hippocampal neurotransmission (PS amplitude, dentate granule cells, perforant path stimulation)
Assay: Population spike (PS) recording in dentate gyrus of anesthetized mice (LTP-like potentiation of synaptic transmission)
Format: in vivo
Conditions: mouse
Text: For population spike (PS) recording, the head of a mouse was fixed with ear bars under urethane anesthesia (an initial dose of 1.2 g/kg, i.p. followed by supplemental injections of 0.2-0.6 g/kg as needed), and a glass recording electrode was placed in the cell body layer of dentate granule cells (coordinates=2.0-2.5 mm posterior to bregma, 1.0-1.5 mm lateral to the midline, 1.5-2.0 mm ventral to the brain surface). Initial responses were obtained using cathodal stimulation (7.0-9.0 V, 0.1 Hz, 0.1 ms in duration) of the perforant path. After both stimulating and recording electrodes were properly positioned and population spike was obtained, the baseline was allowed to stabilize for 30 min prior to baseline recording. Body temperature was maintained at 37° C. Compound A was dissolved in 50% polyethylene glycol, diluted with water, and injected intraperitoneally (i.p.) at concentrations of 0.1 mg/kg, 1 mg/kg and 10 mg/kg, respectively. After the intraperitoneal administration of Compound A, the PS amplitude was measured every 5 minutes, and the proportion in percentage of the obtained value to the PS amplitude at the time of the start of i.p. administration of Compound A (% of basal PS amplitude) was calculated.

For CCCCCC1CC1CC1CC1CCCCCCCC(=O)O (stereo not drawn) [Compound A, 8-(2-((2-pentylcyclopropan-1-yl)methyl)cyclopropyl)octanoic acid], the “time after injection at which potentiation of PS amplitude is still evident” value (1 mg/kg i.p.) was ≥ 120 min, the “PS amplitude, percent of basal PS amplitude” value (1 mg/kg i.p., urethane anesthesia) was “approximately 200%” and the “potentiation of PS amplitude” value (10 mg/kg i.p., compared with 1 mg/kg) was “much lesser potentiation”.
